Like-named read-outs stand apart in the source and are kept apart here. One block for each molecule: values may come before it. Ends that are not written are not given here.
Assays:
[1] = molecular target: NPFFR1 mutant (Q37^NtL, I293^6.58S, and T307^7.31N) (UniProt Q9GZQ6)
human NPFFR2 = molecular target: T1, human NPFFR2 (Homo sapiens, UniProt Q9Y5X5); assay: GloSensor forskolin-stimulated cAMP assay, NPFFR2 wild-type; format: cell-based; conditions: NPFFR2 wild-type (100% DNA treated for hNPSF), HEK293T, 0.5 μM forskolin; for EC50: three independent experiments; for Emax: HEK-293T, mean of three independent experiments ± SEM
T1 construct: expressed in transfected cells; host or cells: HEK293T (pcDNA3.1 NPFFR2)
T1 sequence (Q9Y5X5 103-522): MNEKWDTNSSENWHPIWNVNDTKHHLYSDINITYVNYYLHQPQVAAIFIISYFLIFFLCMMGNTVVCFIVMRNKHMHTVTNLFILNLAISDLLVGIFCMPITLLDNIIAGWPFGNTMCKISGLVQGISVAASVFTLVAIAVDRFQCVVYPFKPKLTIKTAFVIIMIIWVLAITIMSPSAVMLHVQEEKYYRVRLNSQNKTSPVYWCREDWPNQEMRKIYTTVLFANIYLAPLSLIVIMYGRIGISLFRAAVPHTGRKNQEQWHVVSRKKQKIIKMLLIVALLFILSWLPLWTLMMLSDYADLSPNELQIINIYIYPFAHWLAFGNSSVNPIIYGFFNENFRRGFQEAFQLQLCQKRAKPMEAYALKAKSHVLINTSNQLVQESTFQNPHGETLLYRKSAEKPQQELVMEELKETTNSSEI
Protocol: Figure 1 Structural analysis and downstream signaling of NPFFR2. (A) The concentration-dependent response of various agonists on NPFFR2 is measured using a forskolin-stimulated cAMP assay. Data points represent mean values from three independent experiments (each with technical triplicate), with error bars indicating SEM (standard error of the mean). Raw data were normalized to the vehicle-treated (0%) and 0.5 μM forskolin-treated (100%) responses. […] (C) The extracellular loop 2 (ECL2, pink) and N-terminus (Nt, blue) of NPFFR2 are depicted using a cartoon model. […] Source data are available online for this figure.
(§1) HEK293T cells were seeded at a density of 6 × 10^5 cells per well in a six-well cell culture plate (SPL) and co-transfected with expression plasmids encoding GloSensor™ and each NPFFR construct, using 1 µg to 4 µg of DNA per well according to the Lipofectamine™ 2000 Transfection Reagent (Invitrogen) protocol. After 48 h of incubation under standard conditions (37 °C, 5% CO2), the cells were detached using Accutase solution (Sigma-Aldrich) and washed with PBS. The cells were then pelleted by centrifugation, resuspended in CO2-independent medium (Gibco) supplemented with Firefly D-Luciferin (0.5 mg/ml, NanoLight), and distributed into a 96-well white plate (SPL). After a 2-hour incubation, serially diluted ligands and 0.5 μM forskolin were added to each well to detect ligand-induced signaling. Luminescence signals were measured using a Mithras LB940 instrument (Berthold) with a measurement time of 1 s per well.
(§2) Data from the GloSensor^TM cAMP signaling assays were analyzed using GraphPad Prism with a three-parameter logistic model to fit concentration-response curves for both wild-type (WT) and mutant receptors. Mutant expression levels and DNA amounts were adjusted to match WT conditions. ΔpEC50 values were calculated by subtracting the log EC50 of the WT receptor from that of each mutant. Results are presented as mean ± SEM from three independent biological replicates, each performed in duplicate or more. Error bars represent the SEM. Statistical significance was assessed using one-way ANOVA, followed by Dunnett’s tests comparisons to the WT receptor. Significance levels were reported as follows: ns (not significant, P > 0.05); *P < 0.05; **P < 0.01; ***P < 0.001.

human NPFFR1 = molecular target: T2, human NPFFR1 (Homo sapiens, UniProt Q9GZQ6); assay: GloSensor forskolin-stimulated cAMP assay, NPFFR1 wild-type; format: cell-based; conditions: for Emax: HEK-293T, read-out: Emax ± SEM
T2 construct: expressed in transfected cells; host or cells: HEK293T (pcDNA3.1 NPFFR1)
T2 sequence (Q9GZQ6 whole entry): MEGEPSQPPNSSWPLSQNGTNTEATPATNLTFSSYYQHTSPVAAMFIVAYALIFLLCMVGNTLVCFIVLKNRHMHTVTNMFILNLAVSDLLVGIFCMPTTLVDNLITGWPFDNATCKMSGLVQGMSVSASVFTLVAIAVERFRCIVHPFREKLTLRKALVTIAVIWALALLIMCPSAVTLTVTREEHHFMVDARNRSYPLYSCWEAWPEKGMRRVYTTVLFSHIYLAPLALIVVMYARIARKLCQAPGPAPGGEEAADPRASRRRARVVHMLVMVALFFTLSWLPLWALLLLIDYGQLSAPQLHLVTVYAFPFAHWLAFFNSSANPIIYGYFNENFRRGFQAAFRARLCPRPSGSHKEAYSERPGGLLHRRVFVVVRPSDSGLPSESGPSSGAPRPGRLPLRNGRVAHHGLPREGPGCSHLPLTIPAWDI
Protocol: Figure 4 RF-amide ligand selectivity of NPFFR2 and NPFFR1. […] Key residues at the fifth and sixth positions from the C-terminus, are highlighted in bold. […] (B) The concentration-dependent response of various agonists on NPFFR1 was measured using a forskolin-stimulated cAMP assay. Data points represent the mean values from three independent experiments (each with technical triplicate), with error bars indicating SEM. Raw data were normalized to the vehicle-treated (0%) and 0.5 μM forskolin-treated (100%) responses. (C) Structural comparison between the binding modes of hNPSF to NPFFR2 and GnIH to NPFFR1. An AlphaFold2 prediction model of the GnIH–NPFFR1 complex was generated using the hNPSF–NPFFR2 complex structure as a template. The hydrophobicity of NPFFRs is shown with surface representation, where purple indicates hydrophilic regions and bronze indicates hydrophobic regions. […] (D) The cAMP response to the ligands hNPSF and GnIH was measured for both wild-type NPFFR1 and a mutant form of NPFFR1 using a forskolin-stimulated cAMP assay. […] Symbols represent mean values from three independent experiments, each conducted in technical triplicates, with error bars indicating SEM. Responses were normalized to vehicle-treated controls (0%) and 0.5 μM forskolin-treated controls (100%). Source data are available online for this figure.
as §1, §2

[2] = molecular target: T3, NPFFR1-chimera (Q37^NtL/I293^6.58S/T307^7.31N) (Homo sapiens, UniProt Q9GZQ6, I293S/Q37L/T307N); assay: GloSensor forskolin-stimulated cAMP assay, NPFFR1 triple mutant (chimera Q37NtL/I2936.58S/T3077.31N); format: cell-based; conditions: HEK293T, 0.5 μM forskolin, three independent experiments
T3 construct: expressed in transfected cells; host or cells: HEK293T
T3 sequence (Q9GZQ6 whole entry Q37L/I293S/T307N): as the sequence (Q9GZQ6 whole entry) above, with Q37L, I293S, T307N counted along it
Protocol: Figure 4 RF-amide ligand selectivity of NPFFR2 and NPFFR1. (A) Sequence alignment between human NPFFs and RFRPs, the endogenous ligands of NPFFRs, which share PXRF-NH2 motif at their C-terminus (shown in green letters). Key residues at the fifth and sixth positions from the C-terminus, are highlighted in bold. […] (B) The concentration-dependent response of various agonists on NPFFR1 was measured using a forskolin-stimulated cAMP assay. Data points represent the mean values from three independent experiments (each with technical triplicate), with error bars indicating SEM. Raw data were normalized to the vehicle-treated (0%) and 0.5 μM forskolin-treated (100%) responses. (C) Structural comparison between the binding modes of hNPSF to NPFFR2 and GnIH to NPFFR1. An AlphaFold2 prediction model of the GnIH–NPFFR1 complex was generated using the hNPSF–NPFFR2 complex structure as a template. The hydrophobicity of NPFFRs is shown with surface representation, where purple indicates hydrophilic regions and bronze indicates hydrophobic regions. […] (D) The cAMP response to the ligands hNPSF and GnIH was measured for both wild-type NPFFR1 and a mutant form of NPFFR1 using a forskolin-stimulated cAMP assay. […] Symbols represent mean values from three independent experiments, each conducted in technical triplicates, with error bars indicating SEM. Responses were normalized to vehicle-treated controls (0%) and 0.5 μM forskolin-treated controls (100%). Source data are available online for this figure.
To further validate whether these specific residues in NPFFR1 affect ligand selectivity, we generated a triple mutant of NPFFR1, in which residues Q37^Nt, I293^6.58, and T307^7.31 of NPFFR1 were replaced by the corresponding NPFFR2 residues, Leu, Ser, and Asn, respectively (Appendix Fig. S10). […]
HEK293T cells were seeded at a density of 6 × 10^5 cells per well in a six-well cell culture plate (SPL) and co-transfected with expression plasmids encoding GloSensor™ and each NPFFR construct, using 1 µg to 4 µg of DNA per well according to the Lipofectamine™ 2000 Transfection Reagent (Invitrogen) protocol. […] Luminescence signals were measured using a Mithras LB940 instrument (Berthold) with a measurement time of 1 s per well.
as §2, with “Results are presented as mean ± SEM from three independent biological replicates, each performed in duplicate or more. Error bars represent the SEM.” left out, “Significance levels were reported as follows: ns (not significant, P > 0.05); *P < 0.05; **P < 0.01; ***P < 0.001.” left out

[3] = molecular target: NPFFR1 mutant (Q37^NtL, I293^6.58S, and T307^7.31N) (UniProt Q9GZQ6 1-430, Q37^NtL | I293^6.58S | T307^7.31N); assay: cell-based or functional assay
NPFFR1 mutant (Q37^NtL, I293^6.58S, and T307^7.31N) (UniProt Q9GZQ6 1-430, Q37^NtL | I293^6.58S | T307^7.31N), sequence (Q9GZQ6 other isoform, or with tags, fused parts or gaps with the stated changes): as the sequence (Q9GZQ6 whole entry) above, with Q37L, I293S, T307N counted along it

[4] = molecular target: T4, human Neuropeptide FF Receptor 2 (8-420) (human, UniProt Q9Y5X5-2 8-420); assay: cryo-EM structure; purified NPFFR2, Gi heterotrimer and scFv16 mixed 1:1.5:2 with 0.01 mM hNPSF, HRV3C protease and apyrase, overnight at 4 °C; M1 anti-FLAG column and SEC in 20 mM Tris-Cl pH 8.0, 150 mM NaCl, LMNG/CHS, 100 nM hNPSF; global resolution 3.2 Å; conditions: both partners purified
T4 construct: human NPFFR2, residues 8-420; GFP tag cut off with HRV3C protease while the complex was assembled; the 8xHis tag follows GFP; In the final model the N-terminal 24 residues and the residues beyond 348 are missing; also called NPFFR2; NPFF receptor 2; source: Sf9, purified (Ni-NTA; in LMNG/CHS); not shown: FLAG, N-terminal, kept; GFP, C-terminal, cleaved; His8, C-terminal, cleaved
T4 sequence (Q9Y5X5 110-522): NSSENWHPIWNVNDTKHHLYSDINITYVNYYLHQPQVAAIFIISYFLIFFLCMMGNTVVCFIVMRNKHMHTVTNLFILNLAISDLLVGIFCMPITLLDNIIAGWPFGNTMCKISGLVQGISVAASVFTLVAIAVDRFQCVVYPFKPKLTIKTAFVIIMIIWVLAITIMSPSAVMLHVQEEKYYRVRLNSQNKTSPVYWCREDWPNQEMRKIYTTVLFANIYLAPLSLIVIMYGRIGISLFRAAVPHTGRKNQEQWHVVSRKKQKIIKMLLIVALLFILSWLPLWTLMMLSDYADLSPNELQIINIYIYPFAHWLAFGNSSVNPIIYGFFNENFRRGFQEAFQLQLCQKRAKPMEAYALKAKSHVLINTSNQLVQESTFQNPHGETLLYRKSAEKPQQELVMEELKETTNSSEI

NPFFR1 mutant (Q37^NtL, I293^6.58S, and T307^7.31N) (UniProt Q9GZQ6), sequence (Q9GZQ6 other isoform, or with tags, fused parts or gaps mutant): as the sequence (Q9GZQ6 whole entry) above, with Q37L, I293S, T307N counted along it

fold decrease in forskolin-stimulated cAMP assay (GloSensor, HEK293T): response to GnIH, against wild-type NPFFR1 [1]: 30 fold
Molecule: GnIH/RFRP-3 (peptide)

forskolin-stimulated cAMP assay (GloSensor, HEK293T): response to hNPSF, against wild-type NPFFR1 [3]: ~2 fold
binding result [4]: binds
B1: human NPSF (SQAFLFQPQRF-NH2) (peptide)
peptide: SQAFLFQPQRF-NH2
notes: human form of NPSF (SQA-NPFF), an RF-amide peptide of the NPFF series; also called hNPSF; SQA-NPFF; source: synthetic peptide; bought: Cusabio (custom order)

The next lines start with the molecule.

Molecule: MPHSFANLPLRF-NH2 [GnIH] [listing 1 of 2 here]
EC50 (human NPFFR2): 158 nM
EC50 (human NPFFR1; NPFFR1 wild-type, HEK293T, 0.5 μM forskolin, three independent experiments, read-out: pEC50 ± SEM (converted)): 3.16 nM
EC50 [2]: 100 nM

Molecule: CC(C)C[C@H](NC(=O)[C@H](CC(N)=O)NC(=O)[C@@H]1CCCN1C(=O)[C@@H](N)C(C)C)C(=O)N1CCC[C@H]1C(=O)N[C@@H](CCC(N)=O)C(=O)N[C@@H](CCCNC(=N)N)C(=O)N[C@@H](Cc1ccccc1)C(N)=O [NPVF]
Emax (human NPFFR2): 78 ± 3%
EC50 (human NPFFR2): 631 nM

Molecule: MPHSFANLPLRF-NH2 [GnIH] [listing 2 of 2 here]
Emax (human NPFFR2): 81 ± 2%
Emax (human NPFFR1; NPFFR1 wild-type, HEK293T, 0.5 μM forskolin, three independent experiments): 80 ± 3%
Emax ([2]; HEK-293T): 80 ± 2%

Molecule: AGEGLNSQFWSLAAPQRF-NH2 [NPAF]
Emax (human NPFFR2): 80 ± 2%
EC50 (human NPFFR2): 6.31 nM
EC50 (human NPFFR1): 200 nM
Emax (human NPFFR1): 83 ± 3%
